Laboratory results taken from US9840478B2 (MERCK SHARP & DOHME CORP., priority 2013, dated 2017).

Tested on: HIV-1 (H9IIIB strain)
Test: Cell-based HIV infection assay using a reporter (Cell-Based), MT4-GFP cells
Details: Human immunodeficiency virus 1, MT4-GFP cells infected with HIV-1 H9IIIB; 50% normal human serum; mean of at least two independent experiments; read-out: Cell-based IP
Procedure, shortened: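 IC50 from 4-parameter dose-response of % viral growth inhibition, using the 48 h/24 h infected-cell ratio scaled between DMSO and a protease/integrase/NNRTI triple-drug control. Assay used MT4 cells with HIV-LTR-GFP reporter, pre-infected 24 h with HIV-1 H9IIIB, in 50% normal human serum.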

SMILES | IC50 [nM]
O=C(C[C@@H](c1ccc(F)cc1)c1cc(F)cc(F)c1)Nc1cncc(F)c1CC[C@H]1CNCCN1S(=O)(=O)N1CCOCC1 [Example 326, (3S)-3-(3,5-difluorophenyl)-N-(5-fluoro-4-{2-[(2S)-1-(morpholin-4-ylsulfonyl)piperazin-2-yl]ethyl}pyridin-3-yl)-3-(4-fluorophenyl)propanamide] | 8
N[C@H](C(=O)Nc1cccc(F)c1CC[C@H]1CNCCN1S(=O)(=O)c1ccccc1)[C@@H](c1ccc(Cl)cc1)C1CCS(=O)(=O)CC1 [Example 41, (βR)-4-chloro-β-(1,1-dioxidotetrahydro-2H-thiopyran-4-yl)-N-(3-fluoro-2-{2-[(2S)-1-(phenylsulfonyl)piperazin-2-yl]ethyl}phenyl)-L-phenylalaninamide] | 34
O=C(C[C@@H](c1ccc(F)cc1)c1cc(F)cc(F)c1)Nc1cncc(F)c1CC[C@H]1CNCCN1C(=O)c1ccc(OC(F)(F)F)cc1 [Example 344, (3S)-3-(3,5-difluorophenyl)-3-(4-fluorophenyl)-N-(5-fluoro-4-{2-[(2S)-1-{[4-(trifluoromethoxy)phenyl]carbonyl}piperazin-2-yl]ethyl}pyridin-3-yl)propanamide] | 1800
COC(=O)N[C@H](C(=O)Nc1cccc(F)c1CC[C@H]1CNCC(COC(C)C)N1S(C)(=O)=O)[C@H](c1cccc(F)c1)c1cccc(Cl)c1 (stereo partly drawn) [Example 222, (βR)-β-(3-chlorophenyl)-3-fluoro-N-(3-fluoro-2-{2-[(2S)-6-[(1-methylethoxy)methyl]-1-(methylsulfonyl)piperazin-2-yl]ethyl}phenyl)-Nα-(methoxycarbonyl)-L-phenylalaninamide] | 76
O=C(C[C@@H](c1ccc(F)cc1)c1cc(F)cc(F)c1)Nc1cncc(F)c1CC[C@H]1CNCCN1S(=O)(=O)N1CCC(F)(F)CC1 [Example 330, (3S)-3-(3,5-difluorophenyl)-N-[4-(2-{(2S)-1-[(4,4-difluoropiperidin-1-yl)sulfonyl]piperazin-2-yl}ethyl)-5-fluoropyridin-3-yl]-3-(4-fluorophenyl)propanamide] | 43
COC(=O)N[C@H](C(=O)Nc1cncc(F)c1CC[C@H]1CNC[C@@H](C)N1S(=O)(=O)c1ccccc1)[C@@H](c1ccc(Cl)cc1)C(C)C [Example 17, (βR)-4-chloro-N-(5-fluoro-4-{2-[(2S,6R)-6-methyl-1-(phenylsulfonyl)piperazin-2-yl]ethyl}pyridin-3-yl)-Nα-(methoxycarbonyl)-β-(1-methylethyl)-L-phenylalaninamide] | 4.4
COC(=O)N[C@H](C(=O)NC1CCCC1CC[C@H]1CNCCN1S(C)(=O)=O)C(c1ccc(F)cc1)c1ccc(F)cc1 (stereo partly drawn) [Example 352, 4-fluoro-beta-(4-fluorophenyl)-Nalpha-(methoxycarbonyl)-N-(2-{2-[(2S)-1-(methylsulfonyl)piperazin-2-yl]ethyl}cyclopentyl)-L-phenylalaninamide] | 190
COC(=O)N[C@H](C(=O)Nc1cncc(F)c1CC[C@H]1CNC[C@@H](C)N1S(=O)(=O)c1ccc(Cl)cc1)[C@@H](c1ccc(Cl)cc1)C1CCOCC1 [Example 281, (βR)-4-chloro-N-[4-(2-{(2S,6R)-1-[(4-chlorophenyl)sulfonyl]-6-methylpiperazin-2-yl}ethyl)-5-fluoropyridin-3-yl]-Nα-(methoxycarbonyl)-β-(tetrahydro-2H-pyran-4-yl)-L-phenylalaninamide] | 13
COc1ccccc1S(=O)(=O)N1[C@@H](CCc2c(F)cccc2NC(=O)[C@@H](N)[C@@H](c2ccc(F)cc2)c2cc(F)cc(F)c2)CNC[C@@H]1C [Example 238, (βS)-β-(3,5-difluorophenyl)-4-fluoro-N-[3-fluoro-2-(2-{(2S,6S)-1-[(2-methoxyphenyl)sulfonyl]-6-methylpiperazin-2-yl}ethyl)phenyl]-L-phenylalaninamide] | 110
COC(=O)N[C@H](C(=O)Nc1cccc(F)c1CC[C@H]1CNC[C@H](C)N1S(=O)(=O)c1ccccc1)[C@@H](Cc1ccc(F)cc1)c1ccc(Cl)cc1 [Example 194, (βS)-4-chloro-β-(4-fluorobenzyl)-N-(3-fluoro-2-{2-[(2S,6S)-6-methyl-1-(phenylsulfonyl)piperazin-2-yl]ethyl}phenyl)-Nα-(methoxycarbonyl)-L-phenylalaninamide] | 34
C[C@@H]1CN(S(=O)(=O)c2ccccc2)[C@@H](CCc2c(F)cccc2NC(=O)CC(c2ccc(F)cc2)c2ccc(F)cc2)CN1 [Example 88, N-(3-fluoro-2-{2-[(2S,5R)-5-methyl-1-(phenylsulfonyl)piperazin-2-yl]ethyl}phenyl)-3,3-bis(4-fluorophenyl) propanamide] | 520
CC(C)OCC1CNC[C@H](CCc2c(F)cccc2NC(=O)[C@@H](N)[C@H](c2cccc(F)c2)c2cccc(Cl)c2)N1S(C)(=O)=O (stereo partly drawn) [Example 242, (βR)-β-(3-chlorophenyl)-3-fluoro-N-(3-fluoro-2-{2-[(2S)-6-[(1-methylethoxy)methyl]-1-(methylsulfonyl)piperazin-2-yl]ethyl}phenyl)-L-phenylalaninamide] | 220
C[C@H]1CNC[C@H](CCc2c(F)cccc2NC(=O)[C@@H](N)[C@@H](c2ccc(Cl)cc2)c2cncc(F)c2)N1S(=O)(=O)c1ccccc1 [Example 236, (βS)-4-chloro-N-(3-fluoro-2-{2-[(2S,6S)-6-methyl-1-(phenylsulfonyl)piperazin-2-yl]ethyl}phenyl)-β-(5-fluoropyridin-3-yl)-L-phenylalaninamide] | 8.2
O=C(C[C@@H](c1ccc(F)cc1)c1cc(F)cc(F)c1)Nc1cncc(F)c1CC[C@H]1CNCCN1S(=O)(=O)c1ccc(OC(F)(F)F)cc1 [Example 314, (3S)-3-(3,5-difluorophenyl)-3-(4-fluorophenyl)-N-(5-fluoro-4-{2-[(2S)-1-{[4-(trifluoromethoxy)phenyl]sulfonyl}piperazin-2-yl]ethyl}pyridin-3-yl)propanamide] | 9.2
COC(=O)N[C@H](C(=O)Nc1cccc(F)c1CC[C@H]1CNC[C@@H](C)N1S(=O)(=O)c1ccccc1)[C@@H](c1cccc(Cl)c1)C(C)C [Example 208, (βR)-3-chloro-N-(3-fluoro-2-{2-[(2S,6R)-6-methyl-1-(phenylsulfonyl)piperazin-2-yl]ethyl}phenyl)-Nα-(methoxycarbonyl)-β-(1-methylethyl)-L-phenylalaninamide] | 42
COc1ccc(S(=O)(=O)N2[C@@H](CCc3c(F)cccc3NC(=O)[C@@H](N)[C@@H](c3ccc(F)cc3)c3cc(F)cc(F)c3)CNC[C@H]2C)cc1 [Example 16, (βS)-β-(3,5-difluorophenyl)-4-fluoro-N-[3-fluoro-2-(2-{(2S,6R)-1-[(4-methoxyphenyl)sulfonyl]-6-methylpiperazin-2-yl}ethyl)phenyl]-L-phenylalaninamide] | 5.4
O=C(C[C@@H](c1ccc(F)cc1)c1cc(F)cc(F)c1)Nc1cncc(F)c1CC[C@H]1CNCCN1C(=O)N1CCCCC1 [Example 341, (3S)-3-(3,5-difluorophenyl)-3-(4-fluorophenyl)-N-(5-fluoro-4-{2-[(2S)-1-(piperidin-1-ylcarbonyl)piperazin-2-yl]ethyl}pyridin-3-yl)propanamide] | 450
N[C@H](C(=O)Nc1cccc(F)c1CC[C@H]1CNCCN1S(=O)(=O)c1ccccc1)[C@@H](c1ccc(Cl)cc1)c1cccc(F)c1 [Example 39, (βS)-4-chloro-β-(3-fluorophenyl)-N-(3-fluoro-2-{2-[(2S)-1-(phenylsulfonyl)piperazin-2-yl]ethyl}phenyl)-L-phenylalaninamide] | 12
